Results: patent US12377119B2, “Natural killer cells” (IMPERIAL COLLEGE INNOVATIONS LIMITED, priority 2018, dated 2025)

Experiments:
E4bp4 = settings: previously shown by the inventors; cited from earlier work
NK cells = settings: previously shown by the inventors; cited from earlier work
REV-ERBβ = molecular target: T1, REV-ERBβ (Homo sapiens, UniProt Q14995); assay: Dual-luciferase Bmal-luc reporter assay in HEK293T cells transfected with REV-ERBβ; assay type: cell-based; settings: 10 μM
T1 construct: expressed in transfected cells; host or cells: HEK293T
T1 sequence (Q14995 1-579): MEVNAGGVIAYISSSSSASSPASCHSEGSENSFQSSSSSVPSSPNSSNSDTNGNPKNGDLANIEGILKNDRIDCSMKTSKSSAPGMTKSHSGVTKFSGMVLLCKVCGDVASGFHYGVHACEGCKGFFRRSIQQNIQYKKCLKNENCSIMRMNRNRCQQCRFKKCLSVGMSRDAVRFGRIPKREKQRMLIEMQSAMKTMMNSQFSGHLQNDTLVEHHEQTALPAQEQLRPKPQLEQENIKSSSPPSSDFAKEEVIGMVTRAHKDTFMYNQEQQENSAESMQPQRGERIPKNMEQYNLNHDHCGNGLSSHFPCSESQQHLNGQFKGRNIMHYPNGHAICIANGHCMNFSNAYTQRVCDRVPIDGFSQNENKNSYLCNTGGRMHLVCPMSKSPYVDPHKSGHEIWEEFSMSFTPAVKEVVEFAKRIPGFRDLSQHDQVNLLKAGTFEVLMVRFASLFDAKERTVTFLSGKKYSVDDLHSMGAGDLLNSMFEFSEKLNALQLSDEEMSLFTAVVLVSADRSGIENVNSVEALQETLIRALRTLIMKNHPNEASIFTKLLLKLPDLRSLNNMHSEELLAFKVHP
Procedure: (§1) HEK293T cells were defrosted and maintained in DMEM supplemented with 10% FCS and 1% P/S at 37° C. and 5% CO2. Cells were plated in a 24-well plate (7·10^4 cells/well in 0.5 mL of DMEM+10% FCS). 24 h after seeding, cells were transfected with 100 ng of Bmal-luc, 10 ng of pRL-CMV Renilla as an internal control and 10 ng of REV-ERBα or the empty vector pcDNA3 as a control. All conditions were equalled to a total of 400 ng of DNA by using BSM. In order to prepare transfection samples, calculated amounts of DNA needed for each condition were prepared in Opti-MEM and Fugene was added in a 5:2 Fugene:DNA ratio. Mixtures were vortexed to assure homogeneity and left to incubate for 15 min at rt. Afterwards, each DNA mix was transferred into the 24-well plate containing the pre-seeded cells, with each condition repeated by triplicate. 5 h after transfection, cells were treated with compounds 2-12, AG1-AG5 or DMSO as vehicle. Solution of the compounds in DMEM were prepared at a double concentration than the final desired one, and 0.5 mL of these solutions were added to each well. 24 h after transfection, cells were lysed and luciferase activity was measured using Dual-Luciferase Reporter Assay System E2920 (Promega). To perform the experiment, cells were lysed by adding 50 μL of passive lysis buffer (PLB) (1:5 dilution) to each well and gently stirring for 30 min. Each cell lysate was transferred to a 96-well plate. 50 μL of Dual-Glo reagent were dispensed into each well, tapped gently to mix and incubated for 10 min. Luminescence of firefly luciferase was measured using a Tecan VICTOR Light Luminescent counter equipment. Then, 50 μL of Stop&Glo reagent were dispensed to quench firefly activity and activate Renilla luciferase, incubated for 10 min and measured. Firefly activity was normalized to Renilla luciferase activity. Results were analysed using Welch's corrected parametric t-test.
The method of Example 2 was repeated but with 10 ng of REV-ERBβ used in place of REV-ERBa. Compounds 4, 66, 69 and 73 were tested (generated as described in Example 1). Agonist compound AG2 and DMSO were also tested as comparators.
The method of Example 5 was repeated using Compounds 18 and 19 (generated as described in Example 1). Agonist compound AG5 and DMSO were also tested as comparators.

REV-ERBα = molecular target: T2, REV-ERBα (Homo sapiens, UniProt P20393); assay: Dual-luciferase Bmal-luc reporter assay in HEK293T cells transfected with REV-ERBα; assay type: cell-based; settings: 10 μM
T2 construct: expressed in transfected cells; host or cells: HEK293T
T2 sequence (P20393 1-614): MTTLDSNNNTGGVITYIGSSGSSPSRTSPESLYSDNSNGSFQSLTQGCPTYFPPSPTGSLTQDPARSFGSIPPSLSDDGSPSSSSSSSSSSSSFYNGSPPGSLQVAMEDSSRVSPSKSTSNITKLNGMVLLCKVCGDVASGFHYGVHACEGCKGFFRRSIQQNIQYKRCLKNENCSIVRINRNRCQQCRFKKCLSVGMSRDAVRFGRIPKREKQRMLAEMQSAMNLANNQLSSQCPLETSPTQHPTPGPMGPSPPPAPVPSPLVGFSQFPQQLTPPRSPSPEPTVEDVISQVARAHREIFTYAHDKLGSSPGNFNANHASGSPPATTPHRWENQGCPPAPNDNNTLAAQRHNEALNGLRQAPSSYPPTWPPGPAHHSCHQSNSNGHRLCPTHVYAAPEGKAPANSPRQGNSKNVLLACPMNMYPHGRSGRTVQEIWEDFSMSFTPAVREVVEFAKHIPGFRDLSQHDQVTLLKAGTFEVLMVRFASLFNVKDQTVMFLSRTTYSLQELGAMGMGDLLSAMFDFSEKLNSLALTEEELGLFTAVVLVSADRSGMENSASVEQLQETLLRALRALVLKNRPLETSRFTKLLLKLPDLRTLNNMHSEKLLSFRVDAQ
Procedure: as §1
(§2) The method of Example 2 was repeated using Compounds 70 to 72 (generated as described in Example 1). Compounds 4, 7 and 11 (tested in Example 2) were used as a positive control for REV-ERB inhibitory activity, agonist compound AG2 (also tested in Example 2) and DMSO were also tested as comparators.
The method of Example 2 was repeated using Compounds 64 to 66, 69 and 70 to 73 (generated as described in Example 1). Once again, Compounds 4, 7 and 11 (tested in Example 2) were used as a positive control for REV-ERB inhibitory activity, agonist compound AG2 (also tested in Example 2) and DMSO were also tested as comparators.
as §2, with “16” for “70”, “19, 27, 28 and 44” for “72”, “1). Once again,” for “1).”

SMILES | E4bp4 expression (E4bp4) | NK cell production (NK cells) | Effect on REV-ERBβ activity (Bmal-luc luciferase expression) (REV-ERBβ; FIG. 6, three independent experiments in triplicate) | Effect on REV-ERBβ activity (Bmal-luc luciferase expression) (REV-ERBβ; FIG. 8, two independent experiments in triplicate) | Effect on REV-ERBα activity (Bmal-luc luciferase expression) (REV-ERBα; FIG. 3, three independent experiments in triplicate, comparison with SR8278) | Effect on REV-ERBα activity (Bmal-luc luciferase expression) (REV-ERBα; FIG. 4, two independent experiments in triplicate, comparison with SR8278) | Effect on REV-ERBα activity (Bmal-luc luciferase expression) (REV-ERBα; FIG. 5, three independent experiments in triplicate)
CCOC(=O)C1Cc2ccccc2CN1C(=O)c1ccc(SC)s1 (stereo not shown) [SR8278] | increases E4bp4 expression | increases NK cell production | – | – | – | – | –
CCOC(=O)C1Cc2ccccc2CN1S(=O)(=O)c1cccc2ccccc12 (stereo not shown) [AG2] | – | – | agonist | agonist | agonists | agonist | agonist
